Reference: PubChem BioAssay (NCI)
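Tested at 5 concentrations; 48 h exposure; 96-well plates; endpoints linearly interpolated, else capped at highest concentration. At the TGI there is no net growth.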

Experiments:
Experiment in all cases: growth of human tumour cells (NCI), 48 h
SF-539 CNS = test system: SF-539 CNS
SK-MEL-2 melanoma = test system: SK-MEL-2 melanoma
MDA-MB-435 = test system: MDA-MB-435
SR leukemia = test system: SR leukemia
SNB-75 CNS = test system: SNB-75 CNS
SNB-19 CNS = test system: SNB-19 CNS
ACHN renal = test system: ACHN renal
BT-549 breast = test system: BT-549 breast
MOLT-4 leukemia = test system: MOLT-4 leukemia
CCRF-CEM leukemia = test system: CCRF-CEM leukemia
OVCAR-8 ovarian = test system: OVCAR-8 ovarian
UACC-257 melanoma = test system: UACC-257 melanoma
HCT-15 colon = test system: HCT-15 colon

CC1(C)CCCCCC(C)(CCCCCCCCCCCO)C1=O (configuration not stated)
TGI (SF-539 CNS): 30.9 µM | TGI (SK-MEL-2 melanoma): 30.4 µM | TGI (MDA-MB-435): 30.9 µM | TGI (SR leukemia): 14.3 µM | TGI (SNB-75 CNS): 29.9 µM | TGI (SNB-19 CNS): 31.2 µM | TGI (ACHN renal): 25.7 µM | TGI (BT-549 breast): 33.8 µM | TGI (MOLT-4 leukemia): 46.3 µM | TGI (CCRF-CEM leukemia): 29.7 µM | TGI (OVCAR-8 ovarian): 31.2 µM | TGI (UACC-257 melanoma): 27 µM | TGI (HCT-15 colon): 29.7 µM

COc1cc(S(=O)(=O)Nc2ccc(-c3csc(N4C(=O)C(C)SC4c4ccccc4O)n3)cc2)ccc1Cl (configuration not stated)
TGI (SF-539 CNS): > 100 µM | TGI (SK-MEL-2 melanoma): 91.7 µM | TGI (MDA-MB-435): > 100 µM | TGI (SR leukemia): > 100 µM | TGI (SNB-75 CNS): 95.7 µM | TGI (SNB-19 CNS): > 100 µM | TGI (ACHN renal): > 100 µM | TGI (BT-549 breast): > 100 µM | TGI (MOLT-4 leukemia): > 100 µM | TGI (CCRF-CEM leukemia): > 100 µM | TGI (OVCAR-8 ovarian): > 100 µM | TGI (HCT-15 colon): > 100 µM

Cc1nc(N)c(N2CCN(Cc3ccccc3)CC2)c(=O)[nH]1
TGI (SF-539 CNS): > 100 µM | TGI (SK-MEL-2 melanoma): > 100 µM | TGI (MDA-MB-435): > 100 µM | TGI (SR leukemia): > 100 µM | TGI (SNB-19 CNS): > 100 µM | TGI (ACHN renal): > 100 µM | TGI (BT-549 breast): > 100 µM | TGI (MOLT-4 leukemia): > 100 µM | TGI (CCRF-CEM leukemia): > 100 µM | TGI (OVCAR-8 ovarian): > 100 µM | TGI (UACC-257 melanoma): > 100 µM | TGI (HCT-15 colon): > 100 µM

NC(N)=NS(=O)(=O)c1ccc(Nc2c3ccccc3nc3c(C(=O)NC(CO)(CO)CO)cccc23)cc1
TGI (SK-MEL-2 melanoma): 50.8 µM | TGI (MDA-MB-435): > 100 µM | TGI (SR leukemia): > 100 µM | TGI (SNB-75 CNS): 18.7 µM | TGI (SNB-19 CNS): > 100 µM | TGI (ACHN renal): 40.8 µM | TGI (BT-549 breast): 36.7 µM | TGI (MOLT-4 leukemia): > 100 µM | TGI (CCRF-CEM leukemia): 54.8 µM | TGI (OVCAR-8 ovarian): > 100 µM | TGI (UACC-257 melanoma): > 100 µM | TGI (HCT-15 colon): > 100 µM

O=C1c2ccccc2C(=O)c2c1oc(=O)c1ccccc21
TGI (SF-539 CNS): > 25 µM | TGI (SK-MEL-2 melanoma): 10.1 µM | TGI (MDA-MB-435): 3.61 µM | TGI (SR leukemia): 21.3 µM | TGI (SNB-75 CNS): 12.3 µM | TGI (SNB-19 CNS): > 25 µM | TGI (ACHN renal): 11.1 µM | TGI (BT-549 breast): 9.2 µM | TGI (MOLT-4 leukemia): 12.5 µM | TGI (CCRF-CEM leukemia): 16 µM | TGI (OVCAR-8 ovarian): 15.1 µM | TGI (UACC-257 melanoma): 6.75 µM | TGI (HCT-15 colon): 7.5 µM

O=C(Nc1ccccc1)Nn1c(-c2cccs2)nc2ccc(I)cc2c1=O
TGI (SF-539 CNS): > 100 µM | TGI (MDA-MB-435): 43.3 µM | TGI (SR leukemia): 47.9 µM | TGI (SNB-75 CNS): 25.6 µM | TGI (SNB-19 CNS): > 100 µM | TGI (ACHN renal): > 100 µM | TGI (BT-549 breast): 39 µM | TGI (CCRF-CEM leukemia): 60.8 µM | TGI (OVCAR-8 ovarian): > 100 µM | TGI (UACC-257 melanoma): 65.9 µM | TGI (HCT-15 colon): > 100 µM

CCn1c(-c2ccccc2)nc2c1C(=O)c1ccccc1C2=O
TGI (SF-539 CNS): > 100 µM | TGI (MDA-MB-435): 33.8 µM | TGI (SR leukemia): > 100 µM | TGI (SNB-19 CNS): > 100 µM | TGI (BT-549 breast): 60.6 µM | TGI (MOLT-4 leukemia): 91.1 µM | TGI (CCRF-CEM leukemia): > 100 µM | TGI (OVCAR-8 ovarian): 35 µM | TGI (HCT-15 colon): 44.1 µM

O=C1N(CN2CCOCC2)CN(CN2CCOCC2)C(=O)N1Cc1ccccc1
TGI (SF-539 CNS): 38.9 µM | TGI (SK-MEL-2 melanoma): 32.2 µM | TGI (MDA-MB-435): 38 µM | TGI (SR leukemia): 40.7 µM | TGI (SNB-75 CNS): 72.5 µM | TGI (SNB-19 CNS): > 100 µM | TGI (ACHN renal): > 100 µM | TGI (BT-549 breast): 57 µM | TGI (MOLT-4 leukemia): 39.3 µM | TGI (CCRF-CEM leukemia): 75.8 µM | TGI (OVCAR-8 ovarian): 43.4 µM | TGI (UACC-257 melanoma): 48.6 µM | TGI (HCT-15 colon): 84.8 µM

Cn1c(=O)c2nc3nnc(C#N)c(N)n3c2n(C)c1=O
TGI (SF-539 CNS): > 100 µM | TGI (SK-MEL-2 melanoma): > 100 µM | TGI (MDA-MB-435): > 100 µM | TGI (SR leukemia): > 100 µM | TGI (ACHN renal): > 100 µM | TGI (BT-549 breast): > 100 µM | TGI (MOLT-4 leukemia): > 100 µM | TGI (CCRF-CEM leukemia): > 100 µM | TGI (OVCAR-8 ovarian): > 100 µM | TGI (HCT-15 colon): > 100 µM

c1ccc2c(c1)CCN1CCc3c([nH]c4ccccc34)C21 (configuration not stated)
TGI (SF-539 CNS): > 100 µM | TGI (SK-MEL-2 melanoma): 57.1 µM | TGI (MDA-MB-435): 75.5 µM | TGI (SR leukemia): 56.3 µM | TGI (SNB-75 CNS): 79 µM | TGI (SNB-19 CNS): > 100 µM | TGI (ACHN renal): > 100 µM | TGI (BT-549 breast): > 100 µM | TGI (MOLT-4 leukemia): 70.6 µM | TGI (CCRF-CEM leukemia): 95.5 µM | TGI (OVCAR-8 ovarian): > 100 µM | TGI (UACC-257 melanoma): 91.6 µM | TGI (HCT-15 colon): > 100 µM

COP(=O)(OC)C(O)/C=C/c1ccco1 (configuration not stated)
TGI (SK-MEL-2 melanoma): > 100 µM | TGI (MDA-MB-435): > 100 µM | TGI (SR leukemia): > 100 µM | TGI (SNB-19 CNS): > 100 µM | TGI (ACHN renal): > 100 µM | TGI (BT-549 breast): > 100 µM | TGI (MOLT-4 leukemia): > 100 µM | TGI (OVCAR-8 ovarian): > 100 µM | TGI (UACC-257 melanoma): > 100 µM | TGI (HCT-15 colon): > 100 µM

COc1ccc(/C=C(\C(=O)OCC(C)C)c2ccc(OC)c(OC)c2)cc1OC
TGI (SF-539 CNS): > 100 µM | TGI (SK-MEL-2 melanoma): > 100 µM | TGI (MDA-MB-435): > 100 µM | TGI (SR leukemia): > 100 µM | TGI (SNB-75 CNS): > 100 µM | TGI (SNB-19 CNS): > 100 µM | TGI (ACHN renal): > 100 µM | TGI (BT-549 breast): > 100 µM | TGI (MOLT-4 leukemia): > 100 µM | TGI (CCRF-CEM leukemia): > 100 µM | TGI (OVCAR-8 ovarian): > 100 µM | TGI (UACC-257 melanoma): > 100 µM | TGI (HCT-15 colon): > 100 µM

Cc1nn(-c2ccccc2)c2c1C(c1cc3ccccc3nc1Cl)NC(=S)N2 (configuration not stated)
TGI (SF-539 CNS): 67.2 µM | TGI (SK-MEL-2 melanoma): 44.8 µM | TGI (MDA-MB-435): > 100 µM | TGI (SR leukemia): > 100 µM | TGI (SNB-75 CNS): > 100 µM | TGI (SNB-19 CNS): > 100 µM | TGI (ACHN renal): > 100 µM | TGI (BT-549 breast): > 100 µM | TGI (MOLT-4 leukemia): > 100 µM | TGI (CCRF-CEM leukemia): > 100 µM | TGI (OVCAR-8 ovarian): 82.2 µM | TGI (UACC-257 melanoma): > 100 µM | TGI (HCT-15 colon): > 100 µM

CC(=O)O[C@H]1[C@H](OC(C)=O)[C@@H](CN=[N+]=[N-])OCO[C@@H]1CN=[N+]=[N-]
TGI (SF-539 CNS): > 100 µM | TGI (SK-MEL-2 melanoma): > 100 µM | TGI (MDA-MB-435): > 100 µM | TGI (SR leukemia): > 100 µM | TGI (SNB-75 CNS): > 100 µM | TGI (SNB-19 CNS): > 100 µM | TGI (ACHN renal): > 100 µM | TGI (BT-549 breast): > 100 µM | TGI (MOLT-4 leukemia): > 100 µM | TGI (CCRF-CEM leukemia): > 100 µM | TGI (OVCAR-8 ovarian): > 100 µM | TGI (UACC-257 melanoma): > 100 µM | TGI (HCT-15 colon): > 100 µM

COCC(=O)OC1CCn2c1nc1c2C(=O)C(C)=C(NC(C)=O)C1=N (configuration not stated)
TGI (SF-539 CNS): 3.87 µM | TGI (SK-MEL-2 melanoma): 6.09 µM | TGI (MDA-MB-435): 3.59 µM | TGI (SR leukemia): 7.52 µM | TGI (SNB-75 CNS): 29 µM | TGI (SNB-19 CNS): 38.1 µM | TGI (ACHN renal): 19.9 µM | TGI (BT-549 breast): 3.76 µM | TGI (MOLT-4 leukemia): 5.2 µM | TGI (CCRF-CEM leukemia): 8.27 µM | TGI (OVCAR-8 ovarian): 7.19 µM | TGI (UACC-257 melanoma): 8.23 µM | TGI (HCT-15 colon): 27.5 µM

CCN(CC)c1nc(N(C)C)c2ccc(OC)cc2n1
TGI (SF-539 CNS): 49.6 µM | TGI (SK-MEL-2 melanoma): 36.5 µM | TGI (MDA-MB-435): 24.6 µM | TGI (SR leukemia): 31.4 µM | TGI (SNB-75 CNS): 66.6 µM | TGI (SNB-19 CNS): 70 µM | TGI (ACHN renal): 59.6 µM | TGI (BT-549 breast): 64.8 µM | TGI (MOLT-4 leukemia): 22.1 µM | TGI (OVCAR-8 ovarian): > 100 µM | TGI (UACC-257 melanoma): 28.1 µM | TGI (HCT-15 colon): > 100 µM

CC1(C)O[C@H]2[C@@H]3N=C(c4ccccc4)O[C@@H]3C=C[C@H]2O1
TGI (SF-539 CNS): > 100 µM | TGI (SK-MEL-2 melanoma): > 100 µM | TGI (MDA-MB-435): > 100 µM | TGI (SR leukemia): > 100 µM | TGI (SNB-19 CNS): > 100 µM | TGI (ACHN renal): > 100 µM | TGI (BT-549 breast): > 100 µM | TGI (MOLT-4 leukemia): > 100 µM | TGI (CCRF-CEM leukemia): > 100 µM | TGI (OVCAR-8 ovarian): > 100 µM | TGI (UACC-257 melanoma): > 100 µM | TGI (HCT-15 colon): > 100 µM

O=Cc1[nH]c(=O)[nH]c(=O)c1CCl
TGI (SF-539 CNS): > 100 µM | TGI (SK-MEL-2 melanoma): > 100 µM | TGI (MDA-MB-435): > 100 µM | TGI (SR leukemia): 57.7 µM | TGI (SNB-75 CNS): 75.6 µM | TGI (SNB-19 CNS): > 100 µM | TGI (ACHN renal): > 100 µM | TGI (BT-549 breast): > 100 µM | TGI (MOLT-4 leukemia): > 100 µM | TGI (CCRF-CEM leukemia): > 85.8 µM | TGI (OVCAR-8 ovarian): > 100 µM | TGI (UACC-257 melanoma): > 100 µM | TGI (HCT-15 colon): > 100 µM
